# Values quoted from earlier work in patent publication US12311060B2 (priority 2017, dated 2025).
# Details: rodent models
smiles,measurement,value
"C/C=C1\C2C=C(C)C[C@]1(N)c1ccc(=O)[nH]c1C2 (stereo in doubt) [huperzine A, (1R,9S,13E)-1-amino-13-ethylidene-11-methyl-6-azatricyclo[7.3.1.02,7]trideca-2(7),3,10-trien-5-one]",efficacy as an anticonvulsant in words,very high efficacy
